Experimental data as given in ChEMBL document CHEMBL2417463, “Synthesis and identification of new flavonoids targeting liver X receptor β involved pathway as potential facilitators of Aβ clearance with reduced lipid accumulation” (J Med Chem, 2013).
Calls of active or inactive are those of the source. The calls are words filed in the database; no cut-off is given here.

Legend:
[1] = molecular target: T1, Oxysterols receptor LXR-alpha (Homo sapiens) (UniProt Q13133); test: Agonist activity at human LXRalpha transfected in HEK293 cells at 0.1 uM after 24 hrs by luciferase reporter gene assay relative to vehicle-treated control; assay type: cell-based
T1 sequence (whole entry): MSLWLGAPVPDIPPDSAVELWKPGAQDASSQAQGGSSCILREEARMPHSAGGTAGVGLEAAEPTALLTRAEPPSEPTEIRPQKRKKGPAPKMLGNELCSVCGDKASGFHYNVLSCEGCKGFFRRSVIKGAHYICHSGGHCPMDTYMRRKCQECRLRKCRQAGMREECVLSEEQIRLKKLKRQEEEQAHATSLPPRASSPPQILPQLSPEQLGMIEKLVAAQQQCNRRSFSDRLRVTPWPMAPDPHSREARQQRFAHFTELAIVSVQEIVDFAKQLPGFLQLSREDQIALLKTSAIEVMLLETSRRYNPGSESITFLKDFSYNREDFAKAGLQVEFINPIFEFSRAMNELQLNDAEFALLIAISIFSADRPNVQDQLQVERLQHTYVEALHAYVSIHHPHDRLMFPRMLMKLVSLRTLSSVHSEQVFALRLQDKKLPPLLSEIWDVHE

Mus musculus [2] = test: (§1) Antialzheimer activity in double transgenic B6C3 mouse overexpressing APP swedish mutant and PSEN1dE9 assessed as reduction of soluble amyloid beta42 level at 10 mg/kg, ip administered 3 times per week measured after 6 weeks by ELISA relative to vehicle-treated control; assay type: functional; set-up: scale not given: the % may be the effect or the level left; settings: route intraperitoneal
HepG2 [3] = test: Induction of cytoplasmic lipid accumulation in human HepG2 cells at 10 uM after 4 days by oil red O staining-based light microscopic analysis; assay type: cell-based; settings: hepg2, 96 h
HepG2 [4] = test: Induction of intracellular triglyceride accumulation in human HepG2 cells at 10 uM after 4 days relative to vehicle-treated control; assay type: cell-based; settings: hepg2, 96 h
BV-2 [5] = test: Upregulation of IDE mRNA expression in mouse BV2 cells at 0.01 to 1 uM after 18 hrs by real-time qPCR analysis; assay type: functional, cell-based
Mus musculus [6] = test: Antialzheimer activity in double transgenic B6C3 mouse overexpressing APP swedish mutant and PSEN1dE9 assessed as upregulation of apoE protein expression in brain at 10 mg/kg, ip administered 3 times per week measured after 6 weeks by Western blot analysis relative to vehicle-treated control; assay type: functional; settings: route intraperitoneal
BV-2 [7] = test: Cytotoxicity against mouse BV2 cells assessed as inhibition of cell viability at 50 uM after 48 hrs by SRB assay relative to vehicle-treated control; assay type: cell-based; settings: bv-2, 48 h
Mus musculus [8] = test: as §1, with “of” for “of soluble”, “plaque load in hippocampus” for “level”, “OC staining-based fluorescence microscopic analysis” for “ELISA”; assay type: functional; set-up: scale not given: the % may be the effect or the level left; settings: route intraperitoneal
[9] = molecular target: T2, Oxysterols receptor LXR-beta (Mus musculus) (UniProt Q60644); test: Agonist activity at LXRbeta in mouse BV2 cells assessed as upregulation of apoE protein expression at 10 uM after 48 hrs by Western blot analysis relative to vehicle-treated control; assay type: cell-based; settings: BV-2
T2 sequence (whole entry): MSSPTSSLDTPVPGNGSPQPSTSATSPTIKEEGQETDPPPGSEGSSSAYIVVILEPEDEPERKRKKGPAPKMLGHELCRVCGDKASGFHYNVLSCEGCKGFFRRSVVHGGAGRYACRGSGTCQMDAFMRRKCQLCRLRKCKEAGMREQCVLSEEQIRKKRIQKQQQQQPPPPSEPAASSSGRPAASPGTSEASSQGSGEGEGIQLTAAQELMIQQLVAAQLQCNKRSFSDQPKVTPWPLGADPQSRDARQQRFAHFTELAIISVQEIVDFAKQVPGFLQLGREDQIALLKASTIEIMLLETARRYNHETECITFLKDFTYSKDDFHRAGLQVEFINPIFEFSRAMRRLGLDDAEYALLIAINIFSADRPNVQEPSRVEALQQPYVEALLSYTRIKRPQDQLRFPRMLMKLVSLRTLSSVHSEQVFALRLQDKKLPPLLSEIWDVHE

[10] = molecular target: T2, Oxysterols receptor LXR-beta (Mus musculus); test: Agonist activity at LXRbeta in mouse BV2 cells assessed as degradation of intracellular amyloid beta42 preincubated for 18 hrs followed by soluble amyloid beta42 addition measured after 24 hrs by ELISA; assay type: cell-based; settings: BV-2
Mus musculus [11] = test: as §1, with “of” for “of soluble”, “plaque number in hippocampus” for “level”, “OC staining-based fluorescence microscopic analysis” for “ELISA”; assay type: functional; set-up: scale not given: the % may be the effect or the level left; settings: route intraperitoneal
[12] = molecular target: T2, Oxysterols receptor LXR-beta (Mus musculus); test: Agonist activity at LXRbeta in mouse BV2 cells assessed as degradation of intracellular soluble amyloid beta42 at 0.01 uM preincubated for 18 hrs followed by soluble amyloid beta42 addition measured after 24 hrs by ELISA relative to vehicle-treated control; assay type: cell-based; settings: BV-2
[13] = molecular target: T2, Oxysterols receptor LXR-beta (Mus musculus); test: Agonist activity at LXRbeta in mouse BV2 cells assessed as upregulation of ABCA1 protein expression at 1 uM after 12 to 48 hrs by Western blot analysis; assay type: cell-based; settings: BV-2
[14] = molecular target: T2, Oxysterols receptor LXR-beta (Mus musculus); test: Agonist activity at LXRbeta in mouse RAW264.7 cells assessed as induction of ABCA1 promoter activation at 1 uM after 24 hrs by Dual-Glo luciferase reporter gene assay relative to vehicle-treated control; assay type: cell-based
[15] = molecular target: T2, Oxysterols receptor LXR-beta (Mus musculus); test: Agonist activity at LXRbeta in mouse RAW264.7 cells assessed as upregulation of ABCA1 protein expression at 1 uM after 18 to 48 hrs by Western blot analysis; assay type: cell-based
Mus musculus [16] = test: as §1, with “of” for “of soluble”, “plaque number in cortex” for “level”, “OC staining-based fluorescence microscopic analysis” for “ELISA”; assay type: functional; set-up: scale not given: the % may be the effect or the level left; settings: route intraperitoneal
Mus musculus [17] = test: as §1, with “of” for “of soluble”, “plaque number in brain” for “level”, “thioflavin S staining-based fluorescence microscopic analysis” for “ELISA”; assay type: functional, organism-based; set-up: dose 10 mg/kg
HepG2 [18] = test: Cytotoxicity against human HepG2 cells assessed as inhibition of cell viability at 50 uM after 48 hrs by SRB assay relative to vehicle-treated control; assay type: cell-based; settings: hepg2, 48 h, 50 µM
HepG2 [19] = test: Induction of intracellular triglyceride accumulation in human HepG2 cells at 1 uM after 4 days relative to vehicle-treated control; assay type: cell-based; settings: hepg2, 96 h
[20] = molecular target: T1, Oxysterols receptor LXR-alpha (Homo sapiens); test: Agonist activity at human LXRalpha transfected in HEK293 cells at 1 uM after 24 hrs by luciferase reporter gene assay relative to vehicle-treated control; assay type: cell-based
[21] = molecular target: T2, Oxysterols receptor LXR-beta (Mus musculus); test: Agonist activity at LXRbeta in mouse BV2 cells assessed as upregulation of apoE protein expression at 0.1 uM after 48 hrs by Western blot analysis relative to vehicle-treated control; assay type: cell-based; settings: BV-2
[22] = molecular target: T2, Oxysterols receptor LXR-beta (Mus musculus); test: Agonist activity at LXRbeta in mouse BV2 cells assessed as upregulation of ABCA1 protein expression after 12 to 48 hrs by Western blot analysis; assay type: cell-based; settings: BV-2
HEK293 = test: Cytotoxicity against HEK293 cells assessed as inhibition of cell viability at 50 uM after 48 hrs by SRB assay relative to vehicle-treated control; assay type: cell-based; settings: human, hek293, 48 h
[23] = molecular target: T2, Oxysterols receptor LXR-beta (Mus musculus); test: Agonist activity at LXRbeta in mouse RAW264.7 cells assessed as induction of ABCA1 promoter activation after 24 hrs by Dual-Glo luciferase reporter gene assay; assay type: cell-based
Mus musculus [24] = test: Antialzheimer activity in double transgenic B6C3 mouse overexpressing APP swedish mutant and PSEN1dE9 assessed as upregulation of ABCA1 protein expression in brain at 10 mg/kg, ip administered 3 times per week measured after 6 weeks by Western blot analysis relative to vehicle-treated control; assay type: functional; settings: route intraperitoneal

With `Cc1ccc(/C=C/C(=O)c2ccc(N)cc2O)o1` the fold change (FC) [1] was 0.99, the Activity (Mus musculus [2]) was 31% and the Activity (HepG2 [3]) was “Toxic”. The Activity (HepG2 [4]) was -0.3%, the Activity (BV-2 [5]) was “inactive” and the “fold change (FC)” value (Mus musculus [6]) was 1.6. For the same molecule, the Activity (BV-2 [7]) was “Non-toxic”, the Activity (Mus musculus [8]) was 28% and the fold change (FC) [9] was 2.7. The Activity [10] was “Dose-dependent effect”, the Activity (Mus musculus [11]) was 20% and the Activity [12] was 29%. The Activity [13] was “Active”, the fold change (FC) [14] was 2.09 and the Activity [15] was “Active”. The Activity (Mus musculus [16]) was 30%, the Activity (Mus musculus [17]) was “Active” and the Activity (HepG2 [18]) was “Non-toxic”. It also gave an Activity (HepG2 [19]) of -0.3%, a fold change (FC) [20] of 1.19 and a fold change (FC) [21] of 1.6. The Activity [22] was “Dose-dependent effect”, the Activity (HEK293) was “Non-toxic” and the Activity [23] was “Dose-dependent effect”. The “fold change (FC)” value (Mus musculus [24]) was 2.3.
